Structures can show the parent of a compound that is named as a salt. Where two headings read alike, the source gives them in different places.
Legend:
[1] = test system: live bacteria in Chlorella culture; settings: for bacteria count: pH 3.5 with HCl (37%) for 15 minutes, open raceway pond
Cytophaga sp. = settings: pH treated versus untreated culture, over the life of the cultures
Chlorella = settings: pH 3.5 with HCl (37%) for 15 minutes, open raceway pond
[2] = test system: bacteria attached to Chlorella
Text: (§1) Some bacteria in the microalgae culture may attach to the cell wall of the microalgae, eventually lysing the cell wall of the microalgae and killing the microalgae. […] An example of bacteria known to attach to microalgae is Vampirovibrio chlorellavorus.

Chlorella sp. [3] = settings: for cell dry weight: second pH treatment 7.5 to 3.5 with HCl (18%) for 15 minutes, raised with 4 M NaOH
Chlorella sp. [4] = settings: culture at 1,029 mg/L acetate, pH 3.5 for 15 minutes, returned to 7.5 with 2 M NaOH
Description: The pH treated culture samples were maintained at the culture pH of 3.5 for 15 minutes before returning the culture pH to 7.5 by adding 2 M NaOH.
The pH treatment was applied directly into the culture, without previous concentration or subsequent dilution through inoculation into a fresh media. All cultures were incubated with shaking at 100 rpm in 5% carbon dioxide and 25° C. […] 100 μM photon/m^2 s of light was also provided to create mixotrophic growth conditions. The cultures were monitored for 4 days (96 hours with dry weight samples taken at 0, 48, and 96 hours). Residual acetate analyses were carried at the end of the experiment.

Chlorella sp. [5] = settings: pH lowered from about 7.5 to 3.5 for 15 minutes, raised back with 5M NaOH
Description: The first 400 ml culture was maintained as an untreated control at a pH of about 7.5. […] The pH treatments were applied directly to the cultures, without previous concentration of the microalgae or subsequent dilution through inoculation into fresh culture media. All cultures were incubated with shaking at 100 rpm in 5% carbon dioxide and 25° C. […] 100 μM photon/m^2 s of light was also provided to create mixotrophic growth conditions. The cultures were monitored for 4 days (96 hours with dry weight samples taken at 0, 48, and 96 hours). Live bacteria count samples were taken at 0 and 48 hours, and quantified using aerobic colony forming units (CFU) obtained from plate counts utilizing Petrifilm available from 3M (St. Paul, Minn.). A bacteria to microalgae ratio was also quantified using guava flow cytometry.

[6] = test system: Vampirovibrio chlorellavorus; settings: culture receiving the second pH treatment, 85% before treatment
Text: as §1
Samples were taken every two days to determine the cell dry weight (g/L) of the cultures.

In the case of `Cl` [HCl, hydrochloric acid], the “total bacteria live count lower than the untreated culture” value ([1]; immediately following treatment) is reported as “approximately 2 logs”, the bacteria count ([1]; 0 h) is reported as 4.00E+04 CFU and the bacteria count ([1]; 24 h) is reported as 1.50E+07 CFU. The bacteria count ([1]; 48 h) was 1.20E+08 CFU, the bacteria count ([1]; 72 h) was 2.20E+08 CFU and the bacteria count ([1]; 96 h) was 1.30E+08 CFU. The bacteria count ([1]; 120 h) was 1.20E+08 CFU, the bacteria count ([1]; 144 h) was 1.50E+08 CFU and the “Cytophaga sp. detection by qPCR” value (Cytophaga sp.) was “detected in the untreated culture only”. It also gave a cell dry weight (Chlorella; raised to 8.5 with NaOH, 0 h) of 1.2 g/L, a cell dry weight (Chlorella; 11 h) of 1.4 g/L and a cell dry weight (Chlorella; 24 h) of 1.6 g/L. For the same compound, the cell dry weight (Chlorella; 35 h) was 2.2 g/L, the cell dry weight (Chlorella; 48 h) was 2.5 g/L and the cell dry weight (Chlorella; 59 h) was 3.5 g/L. It also gave a cell dry weight (Chlorella; 72 h) of 4.0 g/L, a cell dry weight (Chlorella; 83 h) of 4.8 g/L and a cell dry weight (Chlorella; 96 h) of 5.1 g/L. For the same compound, the cell dry weight (Chlorella; 107 h) was 5.4 g/L, the cell dry weight (Chlorella; 120 h) was 5.7 g/L and the cell dry weight (Chlorella; 131 h) was 6.1 g/L. For the same compound, the cell dry weight (Chlorella; 144 h) was 6.1 g/L, the cell dry weight (Chlorella; 155 h (after partial harvest)) was 1.9 g/L and the cell dry weight (Chlorella; 168 h) was 1.8 g/L. For the same compound, the “time bacterial attachment remained below 10%” value ([2]; pH treated culture) was “over 100 hours”, the “bacterial attachment in the pH treated culture” value ([2]; within 12 hours, drop from about 50%) was “under 10%” and the “productive life of culture” value (Chlorella sp. [3]; culture that received one pH treatment) was “approximately 14 days”. For the same compound, the “productive life of culture (lasted until day, then discarded)” value (Chlorella sp. [3]; culture that received two pH treatments) was ≥ 20 days, the cell dry weight (Chlorella sp. [3]; 0 h) was 1.05 (g/L) and the cell dry weight (Chlorella sp. [3]; 48 h) was 2.79 g/L. For the same compound, the cell dry weight (Chlorella sp. [3]; 96 h) was 3.87 g/L, the cell dry weight (Chlorella sp. [3]; 144 h) was 4.79 g/L and the “Cell Dry Weight” value (Chlorella sp. [4]; 0 h) was 0.89 ± 0.01 g/L. The “Cell Dry Weight” value (Chlorella sp. [4]; 48 h) was 1.88 ± 0.04 g/L, the “Cell Dry Weight” value (Chlorella sp. [4]; 96 h) was 2.58 ± 0.01 g/L and the cell dry weight (Chlorella sp. [5]; 0 h) was 0.80 ± 0.03 g/L. For the same compound, the cell dry weight (Chlorella sp. [5]; 48 h) was 2.54 ± 0.00 g/L, the cell dry weight (Chlorella sp. [5]; 96 h) was 3.78 ± 0.00 g/L and the bacteria attachment level ([6]; day 4 (96 h)) was “about 4.5%”. For the same compound, the bacteria attachment ([6]; within 48 hours) was 0%.

— patent publication US9416347B2, “Method of treating bacterial contamination in a microalgae culture with pH shock” (Heliae Development LLC, priority 2014, dated 2016)
